Literature values, collected in patent publication US20040014955A1, “Identification of essential genes of cryptococcus neoformans and methods of use” (priority 2001, published 2004).
*1 amine or outer side, *2 acyl side, *3 side chain or, on linkers, in order; H or OH if unused. Where a SMILES comes first, the peptide text is derived from it. [ ]: non-standard residue; d: D form. X1 = CC[C@@H](C)[C@@H](O[*:1])C(=O)[*:2]; NMeVal(β-OH) = CN[C@H](C(=O)O)C(C)(C)O; NMeF = CN[C@@H](Cc1ccccc1)C(=O)O; NMeV = CN[C@H](C(=O)O)C(C)C

Tested on: C. neoformans
Details: weanling outbred rats infected with C. neoformans by direct percranial puncture and inoculation into the cranium

Structure (SMILES): CC[C@@H](C)[C@H]1OC(=O)[C@H](C(C)(C)O)N(C)C(=O)[C@H](CC(C)C)NC(=O)[C@H](C(C)C)N(C)C(=O)[C@H]([C@@H](C)CC)NC(=O)[C@@H]2CCCN2C(=O)[C@H](Cc2ccccc2)N(C)C(=O)[C@H](Cc2ccccc2)NC(=O)[C@H](C(C)C)N(C)C1=O [LY295337] (cyclo(F[NMeF]PI[NMeV]L[NMeVal(β-OH)][X1][NMeV]))
- fungal counts in brain tissue: reducing fungal counts in brain tissue
- survival: effective in prolonging survival
